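The compound was tested at five concentrations on cells cultured in 96-well plates, with a 48-hour exposure period. Abbreviation: GI50, concentration required for 50% inhibition of growth. TGI: total growth inhibition.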
Legend:
Assay in all cases: growth of human tumour cells (NCI), 48 h
[1] = test system: DU-145 prostate
[2] = test system: HCC-2998 colon
[3] = test system: HOP-92 NSCLC
[4] = test system: MOLT-4 leukemia
[5] = test system: NCI-H226 lung
[6] = test system: NCI/ADR-RES ovarian
[7] = test system: PC-3 prostate
[8] = test system: SNB-19 CNS
[9] = test system: TK-10 renal
[10] = test system: UACC-257 melanoma

SMILES | GI50 [1] | TGI [1] | GI50 [2] | TGI [2] | GI50 [3] | TGI [3] | GI50 [4] | TGI [4] | GI50 [5] | TGI [5] | GI50 [6] | TGI [6] | GI50 [7] | TGI [7] | GI50 [8] | TGI [8] | GI50 [9] | TGI [9] | GI50 [10] | TGI [10]
Cc1ccc(-n2c3c(c4c(CN(C)C)c(O)ccc42)CCc2ccccc2C3=O)cc1 | 37.3 µM | > 100 µM | 12.2 µM | 24.9 µM | 17.5 µM | 40 µM | 20.3 µM | 39.3 µM | 18.1 µM | 37 µM | 14.5 µM | 34.7 µM | 17.5 µM | 38.4 µM | > 100 µM | > 100 µM | 18.9 µM | 35.6 µM | 17.7 µM | 34 µM
C/C(=N/Nc1nc2ccccc2n1C)c1ccccn1 | 0.141 µM | 17.7 µM | 0.493 µM | 15.6 µM | 0.261 µM | 20 µM | 0.0226 µM | > 39.1 µM | 0.0584 µM | 4.69 µM | 0.0364 µM | 0.555 µM | 0.0369 µM | 36 µM | 0.327 µM | > 100 µM | 0.44 µM | 32.6 µM | 0.0377 µM | 0.489 µM
COC1CC2CCC(C)C(O)(O2)C(=O)C(=O)N2CCCCC2C(=O)OC(C(C)CC2CCC(O)C(OC)C2)CC(=O)C(C)C=C(C)C(O)C(OC)C(=O)C(C)CC(C)/C=C/C=C/C=C1C (centres undefined) | 3.52 µM | 10.9 µM | 0.263 µM | 11.4 µM | 0.0107 µM | 7.48 µM | 0.0787 µM | 13.9 µM | < 0.005 µM | 9.71 µM | 1.86 µM | 30.3 µM | < 0.005 µM | 13 µM | 1.45 µM | 17 µM | 5.62 µM | 19.7 µM | 4.46 µM | 12.5 µM
Ic1ccccc1-c1ccccc1 | > 100 µM | > 100 µM | > 100 µM | > 100 µM | 13.2 µM | > 100 µM | 26.8 µM | > 100 µM | > 100 µM | > 100 µM | > 100 µM | > 100 µM | > 100 µM | > 100 µM | > 100 µM | > 100 µM | > 100 µM | > 100 µM | > 100 µM | > 100 µM
CC1=C2C[C@H]3[C@@H](CC[C@@H]4CC(NS(C)(=O)=O)CC[C@@]43C)[C@@H]2CC[C@@]2(C1)O[C@@H]1C[C@H](C)CN[C@H]1[C@H]2C (some centres undefined) | 14.4 µM | 28 µM | 14.1 µM | 28.2 µM | 1.15 µM | 12.7 µM | 5.5 µM | 23.2 µM | 5.44 µM | 21.1 µM | 12.2 µM | 28.3 µM | 4.39 µM | 17.3 µM | 12.5 µM | 27 µM | 11.3 µM | 24.4 µM | 6.28 µM | 18.9 µM
CC(C)(O)CS(=O)(=O)Nc1ccc2c(c1)CCN(C(=O)COc1cccnc1)C2 | 0.618 µM | > 100 µM | > 26.5 µM | > 100 µM | 97.5 µM | > 100 µM | > 100 µM | > 100 µM | > 100 µM | > 100 µM | 1.47 µM | > 100 µM | 1.06 µM | > 100 µM | – | > 100 µM | > 100 µM | > 100 µM | > 100 µM | > 100 µM
O=C1/C(=C/c2ccccc2)CN(C(=O)c2cccnc2)C/C1=C\c1ccccc1 | 2.04 µM | 6.13 µM | 0.939 µM | 2.27 µM | 10.9 µM | 23.6 µM | 0.752 µM | > 100 µM | 3.12 µM | 9.79 µM | 3.03 µM | 21.2 µM | 1.44 µM | 4.81 µM | 1.49 µM | 10.8 µM | 3.57 µM | 13.4 µM | 3.2 µM | 11 µM
